Measured values: ChEMBL document CHEMBL5724806, “Unraveling interindividual differences and functional consequences of gut microbial metabolism of immunosuppressants” (2024)

How the values were obtained:
Format in all cases: ADME
[1] = (§1) The drug is tested on Enterococcus faecalis strain: ATCC29212 for biotransformation under anaerobic condition. The drug concentrations were measured over 6 timepoints collected between 0 and 12 hours of incubation by liquid-chromatography-coupled mass spectrometry (LC–MS); parameters: dose 5 uM, timepoint 0, 1.5, 3, 6, 9, 12 hours; conditions: 5 µM
[2] = The drug is tested on Lactobacillus fermentum strain: DSM20052 for biotransformation under anaerobic condition. The drug concentrations were measured over 6 timepoints collected between 0 and 12 hours of incubation by liquid-chromatography-coupled mass spectrometry (LC–MS); parameters: dose 5 uM, timepoint 0, 1.5, 3, 6, 9, 12 hours; conditions: limosilactobacillus fermentum, 5 µM
[3] = The drug is tested on Dorea formicigenerans strain: DSM3992 for biotransformation under anaerobic condition. The drug concentrations were measured over 6 timepoints collected between 0 and 12 hours of incubation by liquid-chromatography-coupled mass spectrometry (LC–MS); parameters: dose 5 uM, timepoint 0, 1.5, 3, 6, 9, 12 hours; conditions: 5 µM
[4] = The drug is tested on Clostridium ramosum strain: DSM1402 for biotransformation under anaerobic condition. The drug concentrations were measured over 6 timepoints collected between 0 and 12 hours of incubation by liquid-chromatography-coupled mass spectrometry (LC–MS); parameters: dose 5 uM, timepoint 0, 1.5, 3, 6, 9, 12 hours; conditions: thomasclavelia ramosa, 5 µM
[5] = as §1, with “the gut metagenome community of A-09 with ENA study accession number: PRJEB31790” for “Enterococcus faecalis strain: ATCC29212”, “7” for “6”; parameters: dose 5 uM, timepoint 0, 0.75, 1.5, 3, 6, 9, 12 hours; conditions: 5 µM
[6] = (§2) The drug is tested on the gut metagenome community of A-09 with ENA study accession number: PRJEB31790 for biotransformation under microaerobic condition. The drug concentrations were measured over 7 timepoints collected between 0 and 12 hours of incubation by liquid-chromatography-coupled mass spectrometry (LC–MS); parameters: dose 5 uM, timepoint 0, 0.75, 1.5, 3, 6, 9, 12 hours; conditions: 5 µM
[7] = The drug is tested on Streptococcus sanguinis strain: DSM20567 for biotransformation under microaerobic condition. The drug concentrations were measured over 6 timepoints collected between 0 and 12 hours of incubation by liquid-chromatography-coupled mass spectrometry (LC–MS); parameters: dose 5 uM, timepoint 0, 1.5, 3, 6, 9, 12 hours; conditions: 5 µM
[8] = The drug is tested on Gemella haemolysans strain: DSM107751 for biotransformation under anaerobic condition. The drug concentrations were measured over 6 timepoints collected between 0 and 12 hours of incubation by liquid-chromatography-coupled mass spectrometry (LC–MS); parameters: dose 5 uM, timepoint 0, 1.5, 3, 6, 9, 12 hours; conditions: 5 µM
[9] = The drug is tested on Lactobacillus fermentum strain: DSM20052 for biotransformation under microaerobic condition. The drug concentrations were measured over 6 timepoints collected between 0 and 12 hours of incubation by liquid-chromatography-coupled mass spectrometry (LC–MS); parameters: dose 5 uM, timepoint 0, 1.5, 3, 6, 9, 12 hours; conditions: limosilactobacillus fermentum, 5 µM
[10] = as §2, with “P-01” for “A-09”; parameters: dose 5 uM, timepoint 0, 0.75, 1.5, 3, 6, 9, 12 hours; conditions: 5 µM
[11] = as §2, with “A-10” for “A-09”, “anaerobic” for “microaerobic”; parameters: dose 5 uM, timepoint 0, 0.75, 1.5, 3, 6, 9, 12 hours; conditions: 5 µM
[12] = The drug is tested on Gemella haemolysans strain: DSM107751 for biotransformation under microaerobic condition. The drug concentrations were measured over 6 timepoints collected between 0 and 12 hours of incubation by liquid-chromatography-coupled mass spectrometry (LC–MS); parameters: dose 5 uM, timepoint 0, 1.5, 3, 6, 9, 12 hours; conditions: 5 µM
[13] = The drug is tested on Eubacterium eligens strain: DSM3376 for biotransformation under anaerobic condition. The drug concentrations were measured over 6 timepoints collected between 0 and 12 hours of incubation by liquid-chromatography-coupled mass spectrometry (LC–MS); parameters: dose 5 uM, timepoint 0, 1.5, 3, 6, 9, 12 hours; conditions: lachnospira eligens, 5 µM
[14] = The drug is tested on Bacteroides caccae strain: DSM19024 for biotransformation under anaerobic condition. The drug concentrations were measured over 6 timepoints collected between 0 and 12 hours of incubation by liquid-chromatography-coupled mass spectrometry (LC–MS); parameters: dose 5 uM, timepoint 0, 1.5, 3, 6, 9, 12 hours; conditions: 5 µM
[15] = The drug is tested on Lactobacillus gasseri strain: DSM20243 for biotransformation under microaerobic condition. The drug concentrations were measured over 6 timepoints collected between 0 and 12 hours of incubation by liquid-chromatography-coupled mass spectrometry (LC–MS); parameters: dose 5 uM, timepoint 0, 1.5, 3, 6, 9, 12 hours; conditions: 5 µM
[16] = The drug is tested on Clostridium scindens strain: DSM5676 for biotransformation under anaerobic condition. The drug concentrations were measured over 6 timepoints collected between 0 and 12 hours of incubation by liquid-chromatography-coupled mass spectrometry (LC–MS); parameters: dose 5 uM, timepoint 0, 1.5, 3, 6, 9, 12 hours; conditions: 5 µM
[17] = The drug is tested on Eubacterium hallii strain: DSM3353 for biotransformation under anaerobic condition. The drug concentrations were measured over 6 timepoints collected between 0 and 12 hours of incubation by liquid-chromatography-coupled mass spectrometry (LC–MS); parameters: dose 5 uM, timepoint 0, 1.5, 3, 6, 9, 12 hours; conditions: anaerobutyricum hallii, 5 µM
[18] = The drug is tested on Alloscardovia omnicolens strain: DSM21503 for biotransformation under anaerobic condition. The drug concentrations were measured over 6 timepoints collected between 0 and 12 hours of incubation by liquid-chromatography-coupled mass spectrometry (LC–MS); parameters: dose 5 uM, timepoint 0, 1.5, 3, 6, 9, 12 hours; conditions: 5 µM
[19] = The drug is tested on Bacteroides fragilis strain: DSM2151 for biotransformation under anaerobic condition. The drug concentrations were measured over 6 timepoints collected between 0 and 12 hours of incubation by liquid-chromatography-coupled mass spectrometry (LC–MS); parameters: dose 5 uM, timepoint 0, 1.5, 3, 6, 9, 12 hours; conditions: 5 µM
[20] = The drug is tested on Parabacteroides merdae strain: DSM19495 for biotransformation under anaerobic condition. The drug concentrations were measured over 6 timepoints collected between 0 and 12 hours of incubation by liquid-chromatography-coupled mass spectrometry (LC–MS); parameters: dose 5 uM, timepoint 0, 1.5, 3, 6, 9, 12 hours; conditions: 5 µM
[21] = as §2, with “A-06” for “A-09”, “anaerobic” for “microaerobic”; parameters: dose 5 uM, timepoint 0, 0.75, 1.5, 3, 6, 9, 12 hours; conditions: 5 µM
[22] = as §2, with “P-04” for “A-09”; parameters: dose 5 uM, timepoint 0, 0.75, 1.5, 3, 6, 9, 12 hours; conditions: 5 µM
[23] = The drug is tested on Akkermansia muciniphila strain: DSM22959 for biotransformation under anaerobic condition. The drug concentrations were measured over 6 timepoints collected between 0 and 12 hours of incubation by liquid-chromatography-coupled mass spectrometry (LC–MS); parameters: dose 5 uM, timepoint 0, 1.5, 3, 6, 9, 12 hours; conditions: 5 µM
[24] = The drug is tested on Lactobacillus ruminis strain: ATCC25644 for biotransformation under microaerobic condition. The drug concentrations were measured over 6 timepoints collected between 0 and 12 hours of incubation by liquid-chromatography-coupled mass spectrometry (LC–MS); parameters: dose 5 uM, timepoint 0, 1.5, 3, 6, 9, 12 hours; conditions: ligilactobacillus ruminis, 5 µM
[25] = The drug is tested on Bacteroides xylanisolvens strain: HM 722 for biotransformation under anaerobic condition. The drug concentrations were measured over 6 timepoints collected between 0 and 12 hours of incubation by liquid-chromatography-coupled mass spectrometry (LC–MS); parameters: dose 5 uM, timepoint 0, 1.5, 3, 6, 9, 12 hours; conditions: 5 µM
[26] = The drug is tested on Blautia hansenii strain: DSM20583 for biotransformation under anaerobic condition. The drug concentrations were measured over 6 timepoints collected between 0 and 12 hours of incubation by liquid-chromatography-coupled mass spectrometry (LC–MS); parameters: dose 5 uM, timepoint 0, 1.5, 3, 6, 9, 12 hours; conditions: 5 µM
[27] = The drug is tested on Streptococcus salivarius strain: DSM20560 for biotransformation under microaerobic condition. The drug concentrations were measured over 6 timepoints collected between 0 and 12 hours of incubation by liquid-chromatography-coupled mass spectrometry (LC–MS); parameters: dose 5 uM, timepoint 0, 1.5, 3, 6, 9, 12 hours; conditions: 5 µM
[28] = The drug is tested on Streptococcus anginosus strain: DSM20563 for biotransformation under anaerobic condition. The drug concentrations were measured over 6 timepoints collected between 0 and 12 hours of incubation by liquid-chromatography-coupled mass spectrometry (LC–MS); parameters: dose 5 uM, timepoint 0, 1.5, 3, 6, 9, 12 hours; conditions: 5 µM
[29] = The drug is tested on Lactobacillus ruminis strain: ATCC25644 for biotransformation under anaerobic condition. The drug concentrations were measured over 6 timepoints collected between 0 and 12 hours of incubation by liquid-chromatography-coupled mass spectrometry (LC–MS); parameters: dose 5 uM, timepoint 0, 1.5, 3, 6, 9, 12 hours; conditions: ligilactobacillus ruminis, 5 µM

| Structure (SMILES) | Bacterial Biotransformation [1] | Bacterial Biotransformation [2] | Bacterial Biotransformation [3] | Bacterial Biotransformation [5] | Bacterial Biotransformation [6] | Bacterial Biotransformation [7] | Bacterial Biotransformation [8] | Bacterial Biotransformation [9] | Bacterial Biotransformation [10] | Bacterial Biotransformation [11] | Bacterial Biotransformation [12] | Bacterial Biotransformation [13] | Bacterial Biotransformation [14] | Bacterial Biotransformation [15] | Bacterial Biotransformation [17] | Bacterial Biotransformation [18] | Bacterial Biotransformation [19] | Bacterial Biotransformation [20] | Bacterial Biotransformation [21] | Bacterial Biotransformation [22] | further results |
| --- | --- | --- | --- | --- | --- | --- | --- | --- | --- | --- | --- | --- | --- | --- | --- | --- | --- | --- | --- | --- | --- |
| C[C@@H]1C[C@H]2[C@@H]3CCC4=CC(=O)C=C[C@]4(C)[C@@]3(F)[C@@H](O)C[C@]2(C)[C@@]1(O)C(=O)CO [DEXAMETHASONE] | Compound NOT metabolized | Compound NOT metabolized | Compound NOT metabolized | Compound metabolized | Compound metabolized | Compound NOT metabolized | Compound NOT metabolized | Compound NOT metabolized | Compound NOT metabolized | Compound NOT metabolized | Compound NOT metabolized | Compound NOT metabolized | Compound NOT metabolized | Compound NOT metabolized | Compound NOT metabolized | Compound NOT metabolized | Compound NOT metabolized | Compound NOT metabolized | Compound metabolized | Compound NOT metabolized | Bacterial Biotransformation [4]: Compound NOT metabolized; Bacterial Biotransformation [16]: Compound metabolized; Bacterial Biotransformation [23]: Compound NOT metabolized; Bacterial Biotransformation [24]: Compound NOT metabolized; Bacterial Biotransformation [25]: Compound NOT metabolized; Bacterial Biotransformation [26]: Compound NOT metabolized; Bacterial Biotransformation [27]: Compound NOT metabolized; Bacterial Biotransformation [28]: Compound NOT metabolized; Bacterial Biotransformation [29]: Compound NOT metabolized |
| C[C@]12C=CC(=O)C=C1CC[C@@H]1[C@@H]2[C@@H](O)C[C@@]2(C)[C@H]1CC[C@]2(O)C(=O)CO [PREDNISOLONE] | Compound NOT metabolized | Compound NOT metabolized | Compound NOT metabolized | Compound metabolized | Compound metabolized | Compound NOT metabolized | Compound NOT metabolized | Compound NOT metabolized | Compound metabolized | Compound metabolized | Compound NOT metabolized | Compound NOT metabolized | Compound NOT metabolized | Compound NOT metabolized | Compound NOT metabolized | Compound NOT metabolized | Compound NOT metabolized | Compound NOT metabolized | Compound metabolized | Compound metabolized | Bacterial Biotransformation [4]: Compound NOT metabolized; Bacterial Biotransformation [16]: Compound metabolized; Bacterial Biotransformation [23]: Compound NOT metabolized; Bacterial Biotransformation [24]: Compound NOT metabolized; Bacterial Biotransformation [25]: Compound NOT metabolized; Bacterial Biotransformation [26]: Compound NOT metabolized; Bacterial Biotransformation [27]: Compound NOT metabolized; Bacterial Biotransformation [28]: Compound NOT metabolized; Bacterial Biotransformation [29]: Compound NOT metabolized |
| CCOC(=O)C1=C(COCCN)NC(C)=C(C(=O)OC)C1c1ccccc1Cl (stereo not given) [AMLODIPINE] | Compound NOT metabolized | Compound NOT metabolized | Compound NOT metabolized | Compound NOT metabolized | Compound NOT metabolized | Compound NOT metabolized | Compound NOT metabolized | Compound NOT metabolized | Compound NOT metabolized | Compound NOT metabolized | Compound NOT metabolized | Compound NOT metabolized | Compound NOT metabolized | Compound NOT metabolized | Compound NOT metabolized | Compound NOT metabolized | Compound NOT metabolized | Compound NOT metabolized | Compound NOT metabolized | Compound NOT metabolized | Bacterial Biotransformation [23]: Compound NOT metabolized; Bacterial Biotransformation [24]: Compound NOT metabolized; Bacterial Biotransformation [25]: Compound NOT metabolized; Bacterial Biotransformation [26]: Compound NOT metabolized; Bacterial Biotransformation [27]: Compound NOT metabolized; Bacterial Biotransformation [28]: Compound NOT metabolized; Bacterial Biotransformation [29]: Compound NOT metabolized |
